# Assay results from US20090298903A1, “USE OF TETRAMIC ACID DERIVATIVES FOR INSECT CONTROL” (priority 2006, published 2009).
# What was measured:
# Type in all cases: in vivo
# [1] = test system: oriental fruit moth (Laspeyresia molesta); experiment: Example 28: peach trees against oriental fruit moth; settings: 41 d after treatment, Pyrifroxyfen (35 WP) 123, Acetamiprid (30 SG) 168, (I-4) (150 OD) 153 g a.s./ha
# Experimental: Approx. 10-year-old peach trees are treated, in four replications, against the oriental fruit moth (Laspeyresia molesta). The application is carried out with a knapsack sprayer which is operated with pressurized air. Here, the active substance (I-4) (150 OD) is tested against the commercial standards Pyriproxyfen (35 WP) and Acetamiprid (30 SG) at the specified application rates. The water application rate is 935 l/ha.
# The test is evaluated 41 days after the treatment by scoring the destruction rate of the animals on the trees.
# Carpocapsa pomonella = experiment: Example 29: apple trees against Carpocapsa pomonella, fruit damage; settings: application rate printed as g a.s./ha: Chlorpyrifos-methyl (25 WP) 0.1, (I-4) (240 SC + 0.1% Steffes Mero) 0.012
# Experimental: Approx. 15-year-old apple trees cv. “Golden Delicious” are treated, in four replications, against Carpocapsa pomonella. The application is carried out with an atomizer. Here, the active substance Example (I-4) (240 SC) in a tank mix together with 0.1% a.s. of the adjuvant Steffes Mero (rapeseed oil methyl ester) (733 1R) and the commercial standard Chlorpyrifos-methyl (25 WP) are tested at the specified application rates. The water application rate is 1052 l/ha. Two applications are carried out at an interval of 13 days.
# The test is evaluated 32 days after treatment 2 by scoring the fruit damage with the aid of the Abbott formula.
# [2] = test system: Leptinotarsa decemlineata; experiment: Example 23: potatoes against Leptinotarsa decemlineata
# Experimental: Plots approx. 10 m^2 in size which are planted with potatoes “Quarta” are treated, in three replications, against Leptinotarsa decemlineata. The application is carried out with a knapsack sprayer operated with pressurized air. Here, the active substance Example (I-4) (240 SC), in a tank mix together with 0.2% a.s. rapeseed oil methyl ester (500 EW) and the commercial standard Deltamethrin (100 EC), is tested at the specified application rate. The water application rate is 300 l/ha.
# The test is evaluated 3, 8 and 20 days after the treatment by scoring the destruction rate of the animals (larvae) on the plants.
# [3] = test system: apple capsid bug (Plesiocoris rugicollis); experiment: Example 1B: apple trees against apple capsid bug; settings: 37 d after treatment, larvae on twigs, Deltamethrin (EC 025) 3.75, (I-4) (150 OD) 30 g a.s./ha/m crown level
# Experimental: Apple trees cv. “Holsteiner Cox” which are approximately 14 years old are treated, in 3 replications, against the apple capsid bug (Plesiocoris rugicollis). Here, the active substance Example (I-4) (150 OD) is tested at the specified application rate against the commercial standard Deltamethrin liquid (EC 025) at the specified application rate. The application is carried out with a knapsack sprayer. Here, the treatment is effected with a water application rate of 500 l/ha/m crown level.
# The test is evaluated 37 days after the treatment by scoring the destruction of the larvae on the twigs with the aid of the Abbott method.
# Ceutorhynchus napi = experiment: Example 26-A: oilseed rape against Ceutorhynchus napi; settings: 55 d after treatment, larvae, Deltamethrin (25 EC) 5, (I-4) (+ 0.2% rapeseed oil methyl ester) 72, Thiacloprid (OD 240) 72, Lambda-cyhalothrin 5 g a.s./ha
# Experimental: Plots approx. 25 m^2 in size which are planted with oilseed rape cv. “Artus” are treated, in four replications, against Ceutorhynchus napi. The application is carried out with a motor-operated knapsack sprayer. Here, the active substance Example (I-4), in a tank mix with 0.2% a.s. rapeseed oil methyl ester (500 EW) and the commercial standards Deltamethrin (25 EC), lambda-cyhalothrin (S100) and Thiacloprid (OD 240), is tested at the specified application rates. The water application rate is 250 l/ha.
# The test is evaluated 55 days after the treatment by scoring the destruction rate of the larvae on the plants.
# Rhagoletis cerasi = experiment: Example 21: cherry trees against Rhagoletis cerasi; settings: 23 d after treatment 2, larvae on fruits, Dimethoate (400 EC) 200, (I-4) (150 OD) 75 g a.s./ha/m crown level
# Experimental: Cherry trees cv. “Van” which are approximately 26 years old are treated, in three replications, against Rhagoletis cerasi. The application is carried out with an atomizer. Here, the active substance Example (I-4) (150 OD) and the commercial standard dimethoate (400 EC) are applied at the specified application rates. Two applications are carried out at an interval of 6 days with a water application rate of 500 l/ha/m crown level.
# The test is evaluated 23 days after treatment 2 by scoring the destruction rates of the animals (larvae) on the fruits with the aid of the Abbott formula.
# Thrips tabaci [4] = experiment: Example 6: onions against Thrips tabaci; settings: population on leaves
# Experimental: Plots 15 m^2 in size which are planted with onions are treated, in two replications, against Thrips tabaci. The application is effected with a knapsack sprayer which is operated with pressurized air. Here, the active substances Example (I-4), in a tank mix together with 0.2% a.s. rapeseed oil methyl ester (500 EW) and the commercial standard dimethoate and (380 EC), are tested at the specified application rates in a tank mix with 0.9% a.s. E-actipron (900 EC). The water application rate is 300 l/ha.
# The test was evaluated 43 and 62 days after the treatment by scoring the destruction rate of the population on the leaves.
# Dasineura pyri = experiment: Example 19b): pear trees against Dasineura pyri; settings: 9 d after treatment 2, larvae in rolled leaves, Endosulfan (350 EC) 472.5, (I-4) as 240 SC + Mero (0.1% rapeseed oil methyl ester) 120 g a.s./ha/m crown level
# Experimental: Fully-grown pear trees cv. “Conference” of crown height approx. 3.5 m are treated, in four replications, against Dasineura pyri. Here, the active substance Example (I-4) is tested as (150 OD) and (240 SC) together with 0.1% a.s. rapeseed oil methyl ester (Mero 733 1R) in a tank mix at the specified application rate against the commercial standard Endosulfan (350 EC) at the specified application rate. The application is carried out with a spray diffuser. Here, the treatment is effected with a water application rate of 1000 l/ha/m crown level. Two applications are carried out at an interval of 7 days.
# The test is evaluated 9 days after treatment 2 by scoring the destruction rate of the larvae in the rolled leaves, using the Abbott method.
# Caliothrips phaseoli = experiment: Example 3: courgettes against Caliothrips phaseoli; settings: 8 d after treatment, nymphs on 5 leaves, Endosulfan (350 EC) 525, (I-4) (240 SC + 0.1% rapeseed oil methyl ester) 72 g a.s./ha
# Experimental: Plots approx. 22 m^2 in size which are planted with courgettes cv. “Italiana negra” are treated, in three replications, against Caliothrips phaseoli. The application is effected with a motor-driven knapsack sprayer. Here, the active substance Example (I-4) (240 SC), in a tank mix together with 0.1% a.s. rapeseed oil methyl ester (500 EW) and the commercial standard endosulfan (350 EC), is tested at the specified application rates. The water application rate is approx. 510 l/ha.
# The test is evaluated 8 days after the treatment by scoring the destruction of the animals (nymphs) on 5 leaves.
# Dasineura mali = experiment: Example 19 a): apple trees against Dasineura mali; settings: 59 d after treatment; larvae, apple twigs; Pirimicarb (50 WG) 125, (I-4) (100 OD) 72 g a.s./ha/m crown level
# Experimental: Apple trees cv. “Elan” which are approximately 16 years old are treated, in 3 replications, against the Dasineura mali. Here, the active substance Example (I-4) (100 OD) is tested at the specified application rate against the commercial standard and Pirimicarb (50 WG) at the specified application rate. The application is carried out with a spray diffuser. Here, the treatment is effected with a water application rate of 1000 l/ha/m crown level.
# The test is evaluated 59 days after the treatment by scoring the destruction of the larvae on the basis of the adults present on the twigs with the aid of the Abbott method.
# [5] = test system: flea beetles (Phyllotreta sp.); experiment: Example 24: aubergines against flea beetles; settings: 7 d after the last of four treatments, larvae, Imidacloprid (100 SL) 100, (I-4) (100 OD) 70, Profenofos (500 EC) 500 g a.s./ha
# Experimental: Plots approx. 12 m^2 in size which are planted with aubergines cv. “DLP” are treated, in three replications, against flea beetles (Phyllotreta sp.). The application is carried out with a knapsack sprayer which is operated with pressurized air. Here, the active substance Example (I-4) (100 OD) and the commercial standards Imidacloprid (100 SL) and Profenofos (500 EC) are applied at the specified application rates. Four applications are carried out at intervals of 7, 8 and 10 days, with a water application rate of 750 l/ha.
# The test is evaluated 7 days after the last treatment by scoring the destruction rate of the larvae on the plants.
# Empoasca biguttula = experiment: Example 16: aubergines against Empoasca biguttula
# Experimental: Plots 10 m^2 in size which are planted with aubergines are treated, in three replications, against Empoasca biguttula. The application is carried out with a knapsack sprayer which is operated with pressurized air. Here, the active substance Example (I-4) (150 OD) is tested against the commercial standards Imidacloprid (SL 100) and Profenofos (500 EC) at the specified application rates. Two applications are carried out at an interval of 7 days. The water application rate is 750 l/ha.
# The test is evaluated 2, 6 and 13 days after the first treatment by scoring the destruction rates of the animals (nymphs) on the plants.
# Thrips tabaci [6] = experiment: Example 11: dwarf beans against Thrips tabaci
# Experimental: Plots approx. 26 m^2 in size which are planted with dwarf beans are treated 16 days after emergence against Thrips tabaci, in four replications. The application is carried out with a knapsack sprayer which is operated with pressurized air. Here, the active substances Example (I-2) (240 SC) (I-4) (240 SC) and Example (I-9) (240 SC), in a tank mix with 0.1% a.s. rapeseed oil methyl ester (500 EW), are tested against the commercial standard Profenofos (720 EC) at the specified application rates. The water application rate is 1000 l/ha. Two applications are carried out at an interval of 10 days.
# The test is evaluated 5 and 11 days after the first treatment by scoring the destruction rate of the nymphs on the leaves.
# Pegomya spp. = experiment: Example 17: winter wheat against Pegomya spp.; settings: 3 days after the last of two treatments (interval 7 days), larvae, Thiacloprid (240 OD) 72, (I-4) (240 SC + 0.2% rapeseed oil methyl ester) 96 g a.s./ha
# Experimental: Plots approx. 25 m^2 in size which are planted with winter wheat cv. “Capfern” are treated, in four replications, against Pegomya spp. The application is carried out with a knapsack sprayer which is operated with pressurized air. Here, the active substance Example (I-4) (240 SC), in a tank mix with 0.2% a.s. rapeseed oil methyl ester (500 EW) and the commercial standard Thiacloprid (240 OD), is tested at the specified application rates. Two applications are carried out at an interval of 7 days. The water application rate is 350 l/ha.
# The test is evaluated 3 days after the last treatment by scoring the destruction rate of the larvae on the plants.
smiles,measurement,setting,value
C/C(=N\C#N)N(C)Cc1ccc(Cl)nc1 [Acetamiprid],Efficacy (% Abbott) 41 d,[1],35.8 % Abbott
COP(=S)(OC)Oc1nc(Cl)c(Cl)cc1Cl [Chlorpyrifos-methyl],Efficacy (% Abbott) 32 d after treatment 2,Carpocapsa pomonella,66.7 % Abbott
CC1(C)[C@H](C(=O)O[C@H](C#N)c2cccc(Oc3ccccc3)c2)[C@@H]1C=C(Br)Br [Deltamethrin],Efficacy (% Abbott) 3 d,"[2]; 3 d after treatment, larvae, Deltamethrin (100 EC) 75, (I-4) (240 SC + 0.2% rapeseed oil methyl ester) 72 g a.s./ha",100 % Abbott
same,Efficacy (% Abbott) 8 d,"[2]; 8 d after treatment, Deltamethrin 75, (I-4) 72 g a.s./ha",100 % Abbott
same,Efficacy (% Abbott) 20 d,"[2]; 20 d after treatment, Deltamethrin 75, (I-4) 72 g a.s./ha",100 % Abbott
same,Efficacy (%) Abbott 37 d,[3],78%
same,Efficacy (% Abbott) 55 d,Ceutorhynchus napi,77.1 % Abbott
"CNC(=O)CSP(=S)(OC)OC [Dimethoate, dimethoate]",Efficacy (% Abbott) 23 d,Rhagoletis cerasi,100 % Abbott
same,Efficacy (% Abbott) 43 d,"Thrips tabaci [4]; 43 d after treatment, Dimethoate (380 EC + 0.9% E-actipron) 380, (I-4) (+ 0.2% rapeseed oil methyl ester) 96 g a.s./ha",64.5 % Abbott
same,Efficacy (% Abbott) 62 d,"Thrips tabaci [4]; 62 d after treatment, Dimethoate 380, (I-4) 96 g a.s./ha",74.8 % Abbott
"O=S1OCC2C(CO1)C1(Cl)C(Cl)=C(Cl)C2(Cl)C1(Cl)Cl (stereo not shown) [Endosulfan, endosulfan]",Efficacy (% Abbott) 9 d,Dasineura pyri,71.6 % Abbott
same,Efficacy (% Abbott) 8 d,Caliothrips phaseoli,67.0 % Abbott
Cc1nc(N(C)C)nc(OC(=O)N(C)C)c1C [Pirimicarb],Efficacy (%) Abbott 59 d,Dasineura mali,0%
CCCSP(=O)(OCC)Oc1ccc(Br)cc1Cl (stereo not shown) [Profenofos],Efficacy (% Abbott) 7 d,[5],84 % Abbott
same,Efficacy (% Abott) 2 d,"Empoasca biguttula; 2 d after first treatment, nymphs, Imidacloprid (SL 100) 30, (I-4) (150 OD) 50, Profenofos (500 EC) 500 g a.s./ha, two applications, interval 7 days",41.3 % Abott
same,Efficacy (% Abott) 6 d,"Empoasca biguttula; 6 d after first treatment, Imidacloprid 30, (I-4) 50, Profenofos 500 g a.s./ha",65.1 % Abott
same,Efficacy (% Abott) 13 d,"Empoasca biguttula; 13 d after first treatment, Imidacloprid 30, (I-4) 50, Profenofos 500 g a.s./ha",53.8 % Abott
same,Efficacy (% Abbott) 5 d,"Thrips tabaci [6]; 5 d after first treatment, nymphs on leaves, Profenofos (720 EC) 1300, (I-9) 54, (I-2) 54, (I-4) 60 g a.s./ha, 240 SC + 0.1% rapeseed oil methyl ester",80 % Abbott
same,Efficacy (% Abbott) 11 d,"Thrips tabaci [6]; 11 d after first treatment (second application at 10 days), Profenofos 1300, (I-9) 54, (I-2) 54, (I-4) 60 g a.s./ha",75 % Abbott
"CC(COc1ccc(Oc2ccccc2)cc1)Oc1ccccn1 (stereo not shown) [Pyrifroxyfen, Pyriproxyfen]",Efficacy (% Abbott) 41 d,[1],39.0 % Abbott
N#C/N=C1\SCCN1Cc1ccc(Cl)nc1 [Thiacloprid],Efficacy (% Abbott) 55 d,Ceutorhynchus napi,52.4 % Abbott
same,Efficacy (% Abbott) 10 d,Pegomya spp.,100 % Abbott
